Experiments:
Assay in all cases: fitness (endpoint OD595 vs no drug) (fraction); higher = more growth
B. subtilis 168 = tested on: B. subtilis 168
Summary of the method: (§1)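 Fitness expresses the optical density reached at the stationary-phase transition as a fraction of the robust mean of no-drug control wells. It is capped at 1. Measurements were OD595 every 30 min for 14 h at 37 °C after inoculation of 384-well plates at OD595 0.01 (30 µl, or 55 µl for S. pneumoniae), minus the first reading.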

S. aureus DSM 20231 = tested on: S. aureus DSM 20231
Summary of the method: as §1

S. aureus Newman = tested on: S. aureus Newman
Summary of the method: as §1
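Further: OD595 on entry to stationary phase over no-drug wells; at most 1.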

N[C@@H]1CONC1=O [Cycloserine D] + CCN(CC)CCOC(=O)c1ccc(N)cc1 [Procaine]
fitness
Conditions | first compound 0.125 µg/mL | first compound 0.25 µg/mL | first compound 0.375 µg/mL | first compound 0.5 µg/mL | first compound 0.75 µg/mL | first compound 1.5 µg/mL
B. subtilis 168, partner 85.5 µg/mL | 0.95 | 0.899 | – | 0.921 | – | –
B. subtilis 168, partner 171 µg/mL | 0.908 | 0.851 | – | 0.894 | – | –
B. subtilis 168, partner 342 µg/mL | 0.925 | 0.874 | – | 0.907 | – | –
S. aureus DSM 20231, partner 85.5 µg/mL | – | – | 0.979 | – | 0.982 | 0.981
S. aureus DSM 20231, partner 171 µg/mL | – | – | 0.996 | – | 0.998 | ≥ 1
S. aureus DSM 20231, partner 342 µg/mL | – | – | ≥ 1 | – | 0.966 | ≥ 1
S. aureus Newman, partner 85.5 µg/mL | – | – | ≥ 1 | – | ≥ 1 | ≥ 1
S. aureus Newman, partner 171 µg/mL | – | – | 0.993 | – | ≥ 1 | ≥ 1
S. aureus Newman, partner 342 µg/mL | – | – | ≥ 1 | – | ≥ 1 | ≥ 1

N[C@@H]1CONC1=O [Cycloserine D] + CN1C2=CC=CC=C2N=C3C1=CC=CC3=O [Pyocyanin]
fitness
Conditions | first compound 0.125 µg/mL | first compound 0.25 µg/mL | first compound 0.375 µg/mL | first compound 0.5 µg/mL | first compound 0.75 µg/mL | first compound 1.5 µg/mL
B. subtilis 168, partner 1.25 µg/mL | 0.878 | 0.871 | – | 0.877 | – | –
B. subtilis 168, partner 2.5 µg/mL | 0.833 | 0.781 | – | 0.828 | – | –
B. subtilis 168, partner 5 µg/mL | 0.697 | 0.667 | – | 0.623 | – | –
S. aureus DSM 20231, partner 1.25 µg/mL | – | – | 0.983 | – | 0.985 | 0.962
S. aureus DSM 20231, partner 2.5 µg/mL | – | – | 0.884 | – | 0.875 | 0.865
S. aureus DSM 20231, partner 5 µg/mL | – | – | 0.826 | – | 0.855 | 0.777
S. aureus Newman, partner 1.25 µg/mL | – | – | 0.85 | – | 0.856 | 0.868
S. aureus Newman, partner 2.5 µg/mL | – | – | 0.8 | – | 0.764 | 0.826
S. aureus Newman, partner 5 µg/mL | – | – | 0.457 | – | 0.378 | 0.42

N[C@@H]1CONC1=O [Cycloserine D] + CN(N=O)C(=O)N[C@@H](C=O)[C@@H](O)[C@H](O)[C@H](O)CO [Streptozotocin]
fitness
Conditions | first compound 0.125 µg/mL | first compound 0.25 µg/mL | first compound 0.375 µg/mL | first compound 0.5 µg/mL | first compound 0.75 µg/mL | first compound 1.5 µg/mL
B. subtilis 168, partner 0.15 µg/mL | 0.991 | 0.979 | – | 0.975 | – | –
B. subtilis 168, partner 0.3 µg/mL | 0.963 | 0.98 | – | 0.931 | – | –
B. subtilis 168, partner 0.6 µg/mL | 0.984 | 0.988 | – | 0.958 | – | –
S. aureus DSM 20231, partner 0.15 µg/mL | – | – | 0.822 | – | 0.823 | 0.788
S. aureus DSM 20231, partner 0.3 µg/mL | – | – | 0.867 | – | 0.846 | 0.806
S. aureus DSM 20231, partner 0.6 µg/mL | – | – | 0.609 | – | 0.649 | 0.655
S. aureus Newman, partner 0.15 µg/mL | – | – | 0.833 | – | 0.762 | 0.741
S. aureus Newman, partner 0.3 µg/mL | – | – | 0.665 | – | 0.674 | 0.674
S. aureus Newman, partner 0.6 µg/mL | – | – | 0.607 | – | 0.512 | 0.584

N[C@@H]1CONC1=O [Cycloserine D] + CN[C@@H]1[C@H](O)[C@H](NC)[C@H]2O[C@@]3(O)C(=O)C[C@@H](C)O[C@H]3O[C@@H]2[C@H]1O [Spectinomycin]
fitness
Conditions | first compound 0.125 µg/mL | first compound 0.25 µg/mL | first compound 0.375 µg/mL | first compound 0.5 µg/mL | first compound 0.75 µg/mL | first compound 1.5 µg/mL
B. subtilis 168, partner 2 µg/mL | ≥ 1 | 0.985 | – | 0.992 | – | –
B. subtilis 168, partner 4 µg/mL | 0.947 | 0.934 | – | 0.957 | – | –
B. subtilis 168, partner 8 µg/mL | 0.906 | 0.924 | – | 0.879 | – | –
S. aureus DSM 20231, partner 4 µg/mL | – | – | 0.977 | – | 0.971 | 0.969
S. aureus DSM 20231, partner 8 µg/mL | – | – | 0.944 | – | 0.981 | 0.932
S. aureus DSM 20231, partner 16 µg/mL | – | – | 0.842 | – | 0.877 | 0.882
S. aureus Newman, partner 4 µg/mL | – | – | 0.96 | – | 0.924 | 0.908
S. aureus Newman, partner 8 µg/mL | – | – | ≥ 1 | – | 0.94 | 0.917
S. aureus Newman, partner 16 µg/mL | – | – | 0.941 | – | 0.894 | 0.875

fitness, one replicate
Conditions | first compound 0.375 µg/mL | first compound 0.75 µg/mL | first compound 1.5 µg/mL
S. aureus DSM 20231, partner 32 µg/mL | 0.726 | 0.786 | 0.736
S. aureus DSM 20231, partner 64 µg/mL | 0.0858 | 0.0864 | 0.0563
S. aureus Newman, partner 32 µg/mL | 0.575 | 0.596 | 0.501
S. aureus Newman, partner 64 µg/mL | 0.0802 | 0.0265 | 0.0316

N[C@@H]1CONC1=O [Cycloserine D] + CN[C@H](CC(C)C)C(=O)N[C@H]1C(=O)N[C@@H](CC(N)=O)C(=O)N[C@H]2C(=O)N[C@H]3C(=O)N[C@H](C(=O)N[C@H](C(=O)O)c4cc(O)cc(O)c4-c4cc3ccc4O)[C@H](O)c3ccc(c(Cl)c3)Oc3cc2cc(c3O[C@@H]2O[C@H](CO)[C@@H](O)[C@H](O)[C@H]2O[C@H]2C[C@](C)(N)[C@H](O)[C@H](C)O2)Oc2ccc(cc2Cl)[C@H]1O [Vancomycin]
fitness
Conditions | first compound 0.375 µg/mL | first compound 0.75 µg/mL | first compound 1.5 µg/mL
S. aureus DSM 20231, partner 0.1875 µg/mL | ≥ 1 | 0.973 | ≥ 1
S. aureus DSM 20231, partner 0.375 µg/mL | ≥ 1 | ≥ 1 | 0.957
S. aureus DSM 20231, partner 0.75 µg/mL | ≥ 1 | ≥ 1 | ≥ 1
S. aureus Newman, partner 0.1875 µg/mL | ≥ 1 | 0.995 | 0.983
S. aureus Newman, partner 0.375 µg/mL | ≥ 1 | ≥ 1 | ≥ 1
S. aureus Newman, partner 0.75 µg/mL | ≥ 1 | 0.975 | 0.967

N[C@@H]1CONC1=O [Cycloserine D] + CO/N=C(\C(=O)N[C@@H]1C(=O)N2C(C(=O)[O-])=C(C[N+]3(C)CCCC3)CS[C@H]12)c1csc(N)n1 [Cefepime]
fitness
Conditions | first compound 0.375 µg/mL | first compound 0.75 µg/mL | first compound 1.5 µg/mL
S. aureus DSM 20231, partner 0.125 µg/mL | 0.907 | 0.936 | 0.99
S. aureus DSM 20231, partner 0.25 µg/mL | 0.92 | 0.97 | 0.952
S. aureus DSM 20231, partner 0.5 µg/mL | 0.853 | 0.884 | 0.862
S. aureus Newman, partner 0.125 µg/mL | 0.894 | 0.925 | 0.89
S. aureus Newman, partner 0.25 µg/mL | 0.808 | 0.854 | 0.852
S. aureus Newman, partner 0.5 µg/mL | 0.782 | 0.801 | 0.779

N[C@@H]1CONC1=O [Cycloserine D] + CO[C@@]12[C@H](COC(N)=O)C3=C(C(=O)C(C)=C(N)C3=O)N1C[C@@H]1N[C@@H]12 [Mitomycin C]
fitness
Conditions | first compound 0.375 µg/mL | first compound 0.75 µg/mL | first compound 1.5 µg/mL
S. aureus DSM 20231, partner 0.0156 µg/mL | 0.746 | 0.739 | 0.71
S. aureus DSM 20231, partner 0.0312 µg/mL | 0.716 | 0.716 | 0.711
S. aureus DSM 20231, partner 0.0625 µg/mL | 0.528 | 0.542 | 0.513
S. aureus Newman, partner 0.0156 µg/mL | 0.682 | 0.71 | 0.732
S. aureus Newman, partner 0.0312 µg/mL | 0.656 | 0.651 | 0.693
S. aureus Newman, partner 0.0625 µg/mL | 0.567 | 0.5 | 0.555
